The text below walks through data of patent US20250353891A1 (MEDIMMUNE LIMITED, priority 2022, published 2025).

SMILES strings stand for the structures. Starred links: 1 amine or outer side, 2 acyl side, 3 side chain; linkers in the order of their positions; H or OH if unused. Non-standard residues stand in square brackets, D forms with d. Residues, ends and D or L forms follow the SMILES beside them. Groups on a side chain read outwards from the residue. *: point of attachment. C20 diacid = O=C(O)CCCCCCCCCCCCCCCCCCC(=O)*; C18 diacid = O=C(O)CCCCCCCCCCCCCCCCC(=O)*; γGlu = O=C(O)[C@H](CCC(=O)[*:2])N[*:1]; X3 = O=C(CN(Cc1c[nH]cn1)[*:1])[*:2]; αMeF = C[C@](N)(Cc1ccccc1)C(=O)O; AEEA = NCCOCCOCC(=O)O; Aib = CC(C)(N)C(=O)O

The EC50 is the midpoint of the concentration-response curve.

Assay [1] concerns the target human glucagon receptor (hGCGR) (Homo sapiens, UniProt P47871). As to the kind of experiment: cAMP production (HTRF) in CHO cells expressing hGCGR. To be noted: Table 7, peptides modified at position 20; cAMP in CHO hGCGR cells; geometric mean; read-out: hGluc-R EC50. Type of assay: cell-based. On the set-up: expressed in transfected cells. Put shortly:
(§1)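 Potency values represent EC50 from 4-parameter logistic curves of HTRF % Delta F signal. Receptor-expressing CHO cells (hGCGR 2×10^5 cells/mL, hGLP-1R 1×10^5 cells/mL) were exposed for 30 min at room temperature before two-step cAMP detection.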
Background: Cyclic AMP is a second messenger, typically raised through Gs and lowered through Gi signalling.

Assay [2] addresses human GLP-1 receptor (hGLP-1R) (Homo sapiens, UniProt P43220). As to the kind of experiment: cAMP production (HTRF) in CHO cells expressing hGLP-1R. Type of assay: cell-based. To be noted: for EC50: Table 7, peptides modified at position 20, cAMP in CHO hGLP-1R cells, geometric mean, read-out: hGLP-1R EC50; for % Relative Potency Ratio: Table 7, % GLP-1R activity relative to GLP-1 / % GlucR activity relative to glucagon. On the set-up: expressed in transfected cells. The procedure, abridged:
as §1

Sequence of human GLP-1 receptor (hGLP-1R) (P43220 24-463): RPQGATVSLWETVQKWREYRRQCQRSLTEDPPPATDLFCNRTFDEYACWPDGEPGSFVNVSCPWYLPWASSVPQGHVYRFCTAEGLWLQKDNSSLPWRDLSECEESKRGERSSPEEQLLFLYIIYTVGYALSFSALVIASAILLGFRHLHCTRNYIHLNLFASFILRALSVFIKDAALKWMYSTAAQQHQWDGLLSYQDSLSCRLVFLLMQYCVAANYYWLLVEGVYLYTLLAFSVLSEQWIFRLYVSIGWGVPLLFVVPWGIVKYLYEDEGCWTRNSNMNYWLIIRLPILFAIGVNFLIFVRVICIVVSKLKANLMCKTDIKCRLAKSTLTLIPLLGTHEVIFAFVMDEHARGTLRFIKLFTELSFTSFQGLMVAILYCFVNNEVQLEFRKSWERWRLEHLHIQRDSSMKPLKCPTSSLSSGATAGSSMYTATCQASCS
Sequence of human glucagon receptor (hGCGR) (P47871 26-477): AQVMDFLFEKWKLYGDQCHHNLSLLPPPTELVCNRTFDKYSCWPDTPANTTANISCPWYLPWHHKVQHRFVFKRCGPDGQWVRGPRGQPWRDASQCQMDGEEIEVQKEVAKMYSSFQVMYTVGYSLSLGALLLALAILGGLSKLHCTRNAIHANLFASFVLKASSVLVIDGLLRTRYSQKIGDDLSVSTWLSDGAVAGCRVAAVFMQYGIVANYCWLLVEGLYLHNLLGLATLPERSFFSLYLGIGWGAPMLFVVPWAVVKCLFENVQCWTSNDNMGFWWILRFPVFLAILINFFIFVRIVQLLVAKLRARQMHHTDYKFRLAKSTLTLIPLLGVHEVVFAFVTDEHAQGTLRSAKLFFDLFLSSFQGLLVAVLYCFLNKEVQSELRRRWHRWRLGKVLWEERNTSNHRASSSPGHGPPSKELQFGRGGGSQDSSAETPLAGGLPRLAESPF

As to `CC[C@H](C)[C@H](NC(=O)[C@H](Cc1c[nH]c2ccccc12)NC(=O)[C@H](CCC(N)=O)NC(=O)[C@@H](NC(=O)[C@](C)(Cc1ccccc1)NC(=O)[C@H](CC(=O)O)NC(=O)[C@H](CCCCNC(=O)COCCOCCNC(=O)COCCOCCNC(=O)CC[C@H](NC(=O)CC[C@H](NC(=O)CCCCCCCCCCCCCCCCCCC(=O)O)C(=O)O)C(=O)O)NC(=O)[C@H](C)NC(=O)[C@H](C)NC(=O)[C@H](CCCNC(=N)N)NC(=O)[C@H](CO)NC(=O)[C@H](CC(=O)O)NC(=O)[C@H](CC(C)C)NC(=O)[C@](C)(Cc1ccccc1)NC(=O)[C@H](CCCCN)NC(=O)[C@H](CO)NC(=O)[C@@H](NC(=O)[C@H](CC(=O)O)NC(=O)[C@H](CO)NC(=O)[C@@H](NC(=O)[C@](C)(Cc1ccccc1)NC(=O)[C@H](CO)NC(=O)CNC(=O)[C@H](Cc1c[nH]cn1)NC(=O)[C@H](CO)NC(=O)CNCc1c[nH]cn1)[C@@H](C)O)C(C)C)C(C)C)C(=O)N[C@@H](C)C(=O)N[C@@H](CC(N)=O)C(=O)N[C@H](C(N)=O)[C@@H](C)O` [Peptide 248] (H-[X3]SHGS[αMeF]TSDVSK[αMeF]LDSRAAK([AEEA-AEEA-γGlu-γGlu-C20 diacid])D[αMeF]VQWIANT-NH2; N-terminus assumed), the results for the concentration giving a half-maximal response (EC50) in assay [1] and in assay [2] were 13600 pM and 1090 pM, respectively. Also, the “% Relative Potency Ratio” value in assay [2] was determined as 24.6.

For the compound `CC[C@H](C)[C@H](NC(=O)[C@H](CO)NC(=O)[C@H](CCC(=O)O)NC(=O)[C@@H](NC(=O)[C@](C)(Cc1ccccc1)NC(=O)[C@H](CC(=O)O)NC(=O)[C@H](CCCCNC(=O)COCCOCCNC(=O)COCCOCCNC(=O)CC[C@H](NC(=O)CC[C@H](NC(=O)CCCCCCCCCCCCCCCCCCC(=O)O)C(=O)O)C(=O)O)NC(=O)[C@H](C)NC(=O)C(C)(C)NC(=O)[C@H](CCCNC(=N)N)NC(=O)[C@H](CO)NC(=O)[C@H](CC(=O)O)NC(=O)[C@H](CC(C)C)NC(=O)[C@](C)(Cc1ccccc1)NC(=O)[C@H](CCCCN)NC(=O)[C@H](CO)NC(=O)[C@@H](NC(=O)[C@H](CC(=O)O)NC(=O)[C@H](CO)NC(=O)[C@@H](NC(=O)[C@](C)(Cc1ccccc1)NC(=O)[C@H](CO)NC(=O)CNC(=O)[C@H](Cc1c[nH]cn1)NC(=O)C(C)(C)NC(=O)[C@@H](N)Cc1c[nH]cn1)[C@@H](C)O)C(C)C)C(C)C)C(=O)N[C@@H](C)C(=O)N[C@@H](CC(N)=O)C(=O)N[C@H](C(N)=O)[C@@H](C)O` [Peptide 249] (H-H[Aib]HGS[αMeF]TSDVSK[αMeF]LDSR[Aib]AK([AEEA-AEEA-γGlu-γGlu-C20 diacid])D[αMeF]VESIANT-NH2), the EC50 in assay [1] came to 545 pM. Further, in assay [2], the EC50 is 558 pM and the “% Relative Potency Ratio” value stood at 1.9.

As to `CC[C@H](C)[C@H](NC(=O)[C@H](CO)NC(=O)[C@H](CCC(=O)O)NC(=O)[C@@H](NC(=O)[C@](C)(Cc1ccccc1)NC(=O)[C@H](CC(=O)O)NC(=O)[C@H](CCCCNC(=O)COCCOCCNC(=O)COCCOCCNC(=O)CC[C@H](NC(=O)CC[C@H](NC(=O)CCCCCCCCCCCCCCCCC(=O)O)C(=O)O)C(=O)O)NC(=O)[C@H](C)NC(=O)C(C)(C)NC(=O)[C@H](CCCNC(=N)N)NC(=O)[C@H](CO)NC(=O)[C@H](CC(=O)O)NC(=O)[C@H](CC(C)C)NC(=O)[C@](C)(Cc1ccccc1)NC(=O)[C@H](CCCCN)NC(=O)[C@H](CO)NC(=O)[C@@H](NC(=O)[C@H](CC(=O)O)NC(=O)[C@H](CO)NC(=O)[C@@H](NC(=O)[C@](C)(Cc1ccccc1)NC(=O)[C@H](CO)NC(=O)CNC(=O)[C@H](Cc1c[nH]cn1)NC(=O)C(C)(C)NC(=O)[C@@H](N)Cc1c[nH]cn1)[C@@H](C)O)C(C)C)C(C)C)C(=O)N[C@@H](C)C(=O)N[C@@H](CC(N)=O)C(=O)N[C@H](C(N)=O)[C@@H](C)O` [Peptide 250] (H-H[Aib]HGS[αMeF]TSDVSK[αMeF]LDSR[Aib]AK([AEEA-AEEA-γGlu-γGlu-C18 diacid])D[αMeF]VESIANT-NH2), the EC50 in assay [1] was 1570 pM. Also, in assay [2], the EC50 is 601 pM and the “% Relative Potency Ratio” value was 5.2.

Consider `CC[C@H](C)[C@H](NC(=O)[C@H](CO)NC(=O)[C@H](CCC(=O)O)NC(=O)[C@@H](NC(=O)[C@H](Cc1ccccc1)NC(=O)[C@H](CC(=O)O)NC(=O)[C@H](CCCCNC(=O)COCCOCCNC(=O)COCCOCCNC(=O)CC[C@H](NC(=O)CCCCCCCCCCCCCCCCC(=O)O)C(=O)O)NC(=O)[C@H](C)NC(=O)C(C)(C)NC(=O)[C@H](CCCNC(=N)N)NC(=O)[C@H](CO)NC(=O)[C@H](CC(=O)O)NC(=O)[C@H](CC(C)C)NC(=O)[C@](C)(Cc1ccccc1)NC(=O)[C@H](CCCCN)NC(=O)[C@H](CO)NC(=O)[C@@H](NC(=O)[C@H](CC(=O)O)NC(=O)[C@H](CO)NC(=O)[C@@H](NC(=O)[C@](C)(Cc1ccccc1)NC(=O)[C@H](CO)NC(=O)CNC(=O)[C@H](Cc1c[nH]cn1)NC(=O)C(C)(C)NC(=O)[C@@H](N)Cc1c[nH]cn1)[C@@H](C)O)C(C)C)C(C)C)C(=O)N[C@@H](C)C(=O)N[C@@H](CC(N)=O)C(=O)N[C@H](C(N)=O)[C@@H](C)O` [Peptide 251] (H-H[Aib]HGS[αMeF]TSDVSK[αMeF]LDSR[Aib]AK([AEEA-AEEA-γGlu-C18 diacid])DFVESIANT-NH2; N-terminus assumed), for which the EC50 in assay [1] came out at 248 pM. In assay [2], the concentration giving a half-maximal response (EC50) is 79.8 pM and the “% Relative Potency Ratio” value was determined as 6.2.

In the case of `CC[C@H](C)[C@H](NC(=O)[C@H](CO)NC(=O)[C@H](CCC(=O)O)NC(=O)[C@@H](NC(=O)[C@H](Cc1ccccc1)NC(=O)[C@H](CC(=O)O)NC(=O)[C@H](CCCCNC(=O)COCCOCCNC(=O)COCCOCCNC(=O)CC[C@H](NC(=O)CCCCCCCCCCCCCCCCCCC(=O)O)C(=O)O)NC(=O)[C@H](C)NC(=O)C(C)(C)NC(=O)[C@H](CCCNC(=N)N)NC(=O)[C@H](CO)NC(=O)[C@H](CC(=O)O)NC(=O)[C@H](CC(C)C)NC(=O)[C@](C)(Cc1ccccc1)NC(=O)[C@H](CCCCN)NC(=O)[C@H](CO)NC(=O)[C@@H](NC(=O)[C@H](CC(=O)O)NC(=O)[C@H](CO)NC(=O)[C@@H](NC(=O)[C@](C)(Cc1ccccc1)NC(=O)[C@H](CO)NC(=O)CNC(=O)[C@H](Cc1c[nH]cn1)NC(=O)C(C)(C)NC(=O)[C@@H](N)Cc1c[nH]cn1)[C@@H](C)O)C(C)C)C(C)C)C(=O)N[C@@H](C)C(=O)N[C@@H](CC(N)=O)C(=O)N[C@H](C(N)=O)[C@@H](C)O` [Peptide 252] (H-H[Aib]HGS[αMeF]TSDVSK[αMeF]LDSR[Aib]AK([AEEA-AEEA-γGlu-C20 diacid])DFVESIANT-NH2), the EC50 in assay [1] amounted to 1310 pM. Moreover, in assay [2], the EC50 came to 119 pM and the “% Relative Potency Ratio” value was 21.7.

In the case of `CC[C@H](C)[C@H](NC(=O)[C@H](CO)NC(=O)[C@H](CCC(=O)O)NC(=O)[C@@H](NC(=O)[C@H](Cc1ccccc1)NC(=O)[C@H](CC(=O)O)NC(=O)[C@H](CCCCNC(=O)COCCOCCNC(=O)CC[C@H](NC(=O)CCCCCCCCCCCCCCCCC(=O)O)C(=O)O)NC(=O)[C@H](C)NC(=O)C(C)(C)NC(=O)[C@H](CCCNC(=N)N)NC(=O)[C@H](CO)NC(=O)[C@H](CC(=O)O)NC(=O)[C@H](CC(C)C)NC(=O)[C@](C)(Cc1ccccc1)NC(=O)[C@H](CCCCN)NC(=O)[C@H](CO)NC(=O)[C@@H](NC(=O)[C@H](CC(=O)O)NC(=O)[C@H](CO)NC(=O)[C@@H](NC(=O)[C@](C)(Cc1ccccc1)NC(=O)[C@H](CO)NC(=O)CNC(=O)[C@H](Cc1c[nH]cn1)NC(=O)C(C)(C)NC(=O)[C@@H](N)Cc1c[nH]cn1)[C@@H](C)O)C(C)C)C(C)C)C(=O)N[C@@H](C)C(=O)N[C@@H](CC(N)=O)C(=O)N[C@H](C(N)=O)[C@@H](C)O` [Peptide 253] (H-H[Aib]HGS[αMeF]TSDVSK[αMeF]LDSR[Aib]AK([AEEA-γGlu-C18 diacid])DFVESIANT-NH2), the EC50 in assay [1] worked out at 53.1 pM. For the same compound, in assay [2], the EC50 turned out to be 75.5 pM and the “% Relative Potency Ratio” value amounted to 1.4.
